Settings: 1.0% DMSO, 24-hour incubation at ambient temperature, maximum theoretical 100 μM; for pH 2 solubility: 0.1N HCl, first value of the cell; for pH 7 solubility: 1×PBS buffer (pH 7.4), second value of the cell

| Compound | pH 2 solubility | pH 7 solubility |
| --- | --- | --- |
| C[C@@H](CNC(=O)N(c1nn(CC(F)(F)F)c2c(-c3ccc(C#CC(C)(C)S(C)(=O)=O)nc3[C@H](Cc3cc(F)cc(F)c3)NC(=O)Cn3nc(C(F)(F)F)c4c3C(F)(F)[C@@H]3C[C@H]43)ccc(Cl)c12)S(C)(=O)=O)OP(=O)(O)O [Compound 35, (S)-1-(3-(4-chloro-7-(2-((S)-1-(2-((3bS,4aR)-5,5-difluoro-3-(trifluoromethyl)-3b,4,4a,5-tetrahydro-1H-cyclopropa[3,4]cyclopenta[1,2-c]pyrazol-1-yl)acetamido)-2-(3,5-difluorophenyl)ethyl)-6-(3-methyl-3-(methylsulfonyl)but-1-yn-1-yl)pyridin-3-yl)-1-(2,2,2-trifluoroethyl)-1H-indazol-3-yl)-3-(methylsulfonyl)ureido)propan-2-yl dihydrogen phosphate] | 1 μM | 14 μM |
| C[C@H](OC(=O)N(c1nn(CC(F)(F)F)c2c(-c3ccc(C#CC(C)(C)S(C)(=O)=O)nc3[C@H](Cc3cc(F)cc(F)c3)NC(=O)Cn3nc(C(F)(F)F)c4c3C(F)(F)[C@@H]3C[C@H]43)ccc(Cl)c12)S(C)(=O)=O)[C@H](C)OP(=O)(O)O [Compound 96, (2S,3S)-3-(phosphonooxy)butan-2-yl (4-chloro-7-(2-((S)-1-(2-((3bS,4aR)-5,5-difluoro-3-(trifluoromethyl)-3b,4,4a,5-tetrahydro-1H-cyclopropa[3,4]cyclopenta[1,2-c]pyrazol-1-yl)acetamido)-2-(3,5-difluorophenyl)ethyl)-6-(3-methyl-3-(methylsulfonyl)but-1-yn-1-yl)pyridin-3-yl)-1-(2,2,2-trifluoroethyl)-1H-indazol-3-yl)(methylsulfonyl)carbamate] | 1 μM | 99 μM |
| CC(C)(C#Cc1ccc(-c2ccc(Cl)c3c(N(C(=O)NCCNC(=O)C(=O)O)S(C)(=O)=O)nn(CC(F)(F)F)c23)c([C@H](Cc2cc(F)cc(F)c2)NC(=O)Cn2nc(C(F)(F)F)c3c2C(F)(F)[C@@H]2C[C@H]32)n1)S(C)(=O)=O [Compound 77, 2-((2-(3-(4-chloro-7-(2-((S)-1-(2-((3bS,4aR)-5,5-difluoro-3-(trifluoromethyl)-3b,4,4a,5-tetrahydro-1H-cyclopropa[3,4]cyclopenta[1,2-c]pyrazol-1-yl)acetamido)-2-(3,5-difluorophenyl)ethyl)-6-(3-methyl-3-(methylsulfonyl)but-1-yn-1-yl)pyridin-3-yl)-1-(2,2,2-trifluoroethyl)-1H-indazol-3-yl)-3-(methylsulfonyl)ureido)ethyl)amino)-2-oxoacetic acid] | 21 μM | 1 μM |
| CCOC(=O)C(=O)N(c1nn(CC(F)(F)F)c2c(-c3ccc(C#CC(C)(C)S(C)(=O)=O)nc3[C@H](Cc3cc(F)cc(F)c3)NC(=O)Cn3nc(C(F)(F)F)c4c3C(F)(F)[C@@H]3C[C@H]43)ccc(Cl)c12)S(C)(=O)=O [Compound 14, ethyl 2-(N-(4-chloro-7-(2-((S)-1-(2-((3bS,4aR)-5,5-difluoro-3-(trifluoromethyl)-3b,4,4a,5-tetrahydro-1H-cyclopropa[3,4]cyclopenta[1,2-c]pyrazol-1-yl)acetamido)-2-(3,5-difluorophenyl)ethyl)-6-(3-methyl-3-(methylsulfonyl)but-1-yn-1-yl)pyridin-3-yl)-1-(2,2,2-trifluoroethyl)-1H-indazol-3-yl)methylsulfonamido)-2-oxoacetate] | 1/1 μM | 1/1 μM |
